In patent US20050197350A1, “Novel quinoline, tetrahydroquinazoline, and pyrimidine derivatives and methods of treatment related to the use thereof” (TAISHO PHARMACEUTICAL CO., LTD., priority 2003, published 2005) one finds IC50 and class data, which are given here for 23 compounds.

Structures can show the parent of a compound that is named as a salt. Where two headings read alike, the source gives them in different places.

In assay [1] the target is MCH receptor (Homo sapiens, UniProt Q99705). Description: High throughput functional screening FLIPR/FDSS6000 (intracellular Ca2+ evoked by MCH). As to conditions: FLIPR/FDSS, antagonist activity vs 50 nM MCH. It counts as cell-based. The source says: High Throughput Functional Screening: FLIPR™
This assay utilized a non-endogenous, constitutively active version of the MCH receptor.
The concentration of free Ca^2+ in the cytosol of any cell is extremely low, whereas its concentration in the extracellular fluid and endoplasmic reticulum (ER) is very high. Thus, there is a large gradient tending to drive Ca^2+ into the cytosol across both the plasma membrane and ER. The FLIPR™ and FDSS6000™ systems (Molecular Devices Corporation, […] Photonics K.K.) are designed to perform functional cell-based assays, such as the measurement of intracellular calcium for high-throughput screening. The measurement of fluorescent is associated with calcium release upon activation of the Gq-coupled receptors.
Fluorometric Imaging Plate Reader system was used to allow for rapid, kinetic measurements of intracellular fluorescence in 96 well microplates (or 384 well microplates). Simultaneous measurements of fluorescence in all wells can be made by FLIPR or FDSS6000™ every second with high sensitivity and precision. These systems are ideal for measuring cell-based functional assays such as monitoring the intracellular calcium fluxes that occur within seconds after activation of the Gq coupled receptor.
Briefly, the cells are seeded into 96 well at 5.5×10^4 cells/well with complete culture media (Dulbecco's Modified Eagle Medium with 10% fetal bovine serum, 2 mM L-glutamine, 1 mM sodium pyruvate and 0.5 mg/ml G418, pH 7.4) for the assay next day. On the day of assay, the media is removed and the cells are incubated with 100 μl of loading buffer (4 μM Fluo4-AM in complete culture media containing 2.5 mM Probenicid, 0.5 mg/ml and 0.2% bovine serum albumin) in 5% CO2 incubator at 37° C. for 1 hr. The loading buffer is removed, and the cells are washed with wash buffer (Hank's Balanced Salt Solution containing 2.5 mM Probenicid, 20 mM HEPES, 0.5 mg/ml and 0.2% bovine serum albumin, pH 7.4)). One hundred fifty μl of wash buffer containing various concentrations of test compound is added to the cells, and the cells are incubated in 5% CO2 incubator at 37° C. for 30 min. […] 530 nm for 290 second. When antagonist activity of compound is tested, 50 nM of MCH is used.
Use of FLIPR™ and FDSS6000™ can be accomplished by following manufacturer's instruction (Molecular Device Corporation and […] Photonics K.K.).

The subject of assay [2] is MCH receptors. The assay is described as follows: MCH receptor activity class (method not given).
[3] abbreviates: class by percent of control at 10^−7 M or IC50, table after the classification, read-out: class.
Setting [4] is: class by percent of control at 10^−7 M or IC50, read-out: class.
The mark [5] stands for this setting: class by percent of control at 10^-7 M or IC50.

For the compound `CNc1nc(N[C@H]2CC[C@@H](C(N)Cc3ccccc3OC(F)(F)F)CC2)nc2c1CCCC2` (relative stereo) [Example 12, N^4-Methyl-N^2-{cis-4-[(2-trifluoromethoxy-benzyl)-amino-methyl]-cyclohexyl}-5,6,7,8-tetrahydro-quinazoline-2,4-diamine dihydrochloride], the IC50 in assay [1] (setting [3]) lay in the range of 50 to 200 nM. Still for that read-out and setting: under `CN(C)c1nc(N[C@H]2CC[C@@H](C(N)Cc3ccccc3OC(F)(F)F)CC2)nc2c1CCCC2` (relative stereo) [Example 16, N^4,N^4-Dimethyl-N^2-{cis-4-[(2-trifluoromethoxy-benzyl)-amino-methyl]-cyclohexyl}-5,6,7,8-tetrahydro-quinazoline-2,4-diamine dihydrochloride] stands less than 50 nM. `Cc1cnc(N[C@H]2CC[C@@H](NC(=O)[C@@H]3C[C@H]3c3ccc(Cl)cc3)CC2)nc1N(C)C` (relative stereo) [Example 3316, trans-2-(4-chlorophenyl)-N-(cis-4-{[4-(dimethylamino)-5-methylpyrimidin-2-yl]amino}cyclohexyl)-cyclopropanecarboxamide]: the IC50 in assay [1] (setting [4]) is less than 50 nM.

Consider `Cc1cnc(N[C@H]2CC[C@@H](NC(=O)[C@@H]3C[C@H]3c3cccc(Cl)c3)CC2)nc1N(C)C` (relative stereo) [Example 3317, trans-2-(3-chlorophenyl)-N-(cis-4-{[4-(dimethylamino)-5-methylpyrimidin-2-yl]amino}cyclohexyl)-cyclopropanecarboxamide], for which the IC50 in assay [1] (setting [4]) is less than 50 nM. Still for that read-out and setting: under `Cc1cnc(N[C@H]2CC[C@@H](NC(=O)[C@@H]3C[C@H]3c3ccc(F)c(F)c3)CC2)nc1N(C)C` (relative stereo) [Example 3318, trans-2-(3,4-difluorophenyl)-N-(cis-4-{[4-(dimethylamino)-5-methylpyrimidin-2-yl]amino}cyclohexyl)-cyclopropanecarboxamide] stands less than 50 nM; under `Cc1cnc(N[C@H]2CC[C@@H](NC(=O)[C@@H]3C[C@H]3c3ccc(Cl)c(Cl)c3)CC2)nc1N(C)C` (relative stereo) [Example 3319, trans-2-(3,4-dichlorophenyl)-N-(cis-4-{[4-(dimethylamino)-5-methylpyrimidin-2-yl]amino}cyclohexyl)-cyclopropanecarboxamide], less than 50 nM; under `Cc1cnc(N[C@H]2CC[C@@H](NC(=O)[C@@H]3C[C@H]3c3cc(C(F)(F)F)cc(C(F)(F)F)c3)CC2)nc1N(C)C` (relative stereo) [Example 3320, trans-2-[3,5-bis(trifluoromethyl)phenyl]-N-(cis-4-{[4-(dimethylamino)-5-methylpyrimidin-2-yl]amino}cyclohexyl)-cyclopropanecarboxamide], less than 50 nM. In the case of `CNc1cc(N[C@H]2CC[C@@H](NCc3ccc(Br)cc3OC(F)(F)F)CC2)nc2ccccc12` [Example 1, N^2-[cis-4-(4-Bromo-2-triflouromethoxy-benzyl)-amino-cyclohexyl]-N^4-methyl-quinoline-2,4-diamine dihydrochloride], the IC50 in assay [1] (setting [3]) lay in the range of 50 to 200 nM. Take `CNc1cc(N[C@H]2CC[C@@H](NCCc3ccc(Br)cc3OC(F)(F)F)CC2)nc2ccccc12` [Example 2, N^2-{cis-4-[2-(4-Bromo-2-trifluoromethoxy-phenyl)-ethylamino]-cyclohexyl}-N^4-methyl-quinoline2,4-diamine dihydrochloride]: the IC50 in assay [1] (setting [3]) is 50 to 200 nM. Regarding `CNc1cc(N[C@H]2CC[C@@H](CNCc3ccc(Br)cc3OC(F)(F)F)CC2)nc2ccccc12` [Example 3, N^2-{cis-4-[(4-Bromo-2-trifluoromethhxy-benzyl)-amino-methyl]-cyclohexyl}-N^4-methyl-quinoline-2,4-diamine dihydrochloride], the IC50 in assay [1] (setting [3]) was less than 50 nM.

As to `CN(C)c1cc(N[C@H]2CC[C@@H](NCc3ccc(Br)cc3OC(F)(F)F)CC2)nc2ccccc12` [Example 5, N^2-[cis-4-(4-Bromo-2-trifluoromethoxy-benzyl)-amino-cyclohexyl]-N^4,N^4-dimethyl-quinoline-2,4-diamine dihydrochloride], the IC50 in assay [1] (setting [3]) fell in the range of 50 to 200 nM. `CN(C)c1cc(N[C@H]2CC[C@@H](NCCc3ccc(Br)cc3OC(F)(F)F)CC2)nc2ccccc12` [Example 6, N^2-{cis-4-[2-(4-Bromo-2-trifluoromethoxy-phenyl)ethylamino]-cyclohexyl}-N^4,N^4-dimethyl-quinoline-2,4-diamine dihydrochloride]: the IC50 in assay [1] (setting [3]) was in the range of 50 to 200 nM. For the compound `CN(C)c1cc(N[C@H]2CC[C@@H](CNCc3ccc(Br)cc3OC(F)(F)F)CC2)nc2ccccc12` [Example 7, N^2-{cis-4-[(4-Bromo-2-trifluoromethoxy-benzyl)amino-methyl]-cyclohexyl}-N^4,N^4-dimethyl-quinoline-2,4-diamine dihydrochloride], the IC50 was less than 50 nM in assay [1] (setting [3]) and 11 nM in assay [1] (representative examples, read-out: IC50). As to `CNc1nc(N[C@H]2CC[C@@H](NCc3ccc(Br)cc3OC(F)(F)F)CC2)nc2c1CCCC2` [Example 9, N^2-[cis-4-(4-Bromo-2-trifluoromethoxy-benzyl)amino-cyclohexyl]-N^4-methyl-5,6,7,8-tetrahydro-quinazoline-2,4-diamine dihydrochloride], in assay [1] (setting [3]), the IC50 was more than 200 nM. Consider `CNc1nc(N[C@H]2CC[C@@H](NCCc3ccc(Br)cc3OC(F)(F)F)CC2)nc2c1CCCC2` [Example 10, N^2-{cis-4-[2-(4-Bromo-2-trifluorometboxy-phenyl)-ethylamino]-cyclohexyl}-N^4-methyl-5,6,7,8-tetrahydro-quinazoline-2,4-diamine dihydrochloride], for which the IC50 in assay [1] (setting [3]) lay in the range of 50 to 200 nM. For `CNc1nc(N[C@H]2CC[C@@H](CNCc3ccc(Br)cc3OC(F)(F)F)CC2)nc2c1CCCC2` [Example 11, N^2-{cis-4-[(4-Bromo-2-trifluoromethoxy-beny)amino-methyl]-cyclobexyl}-N^4-methyl-5,6,7,8-tetrahydro-quinazoline-2,4-diamine dihydrochloride], the IC50 in assay [1] (setting [3]) is less than 50 nM.

`CN(C)c1nc(N[C@H]2CC[C@@H](NCc3ccc(Br)cc3OC(F)(F)F)CC2)nc2c1CCCC2` [Example 13, N^2-[cis-4-(4-Bromo-2-trifluoromethoxy-benzyl)-amino-cyclobexyl]-N^4,N^4-dimethyl-5,6,7,8-tetrahydro-quinazoline-2,4-diamine dihydrochloride]: in assay [1] (setting [3]), the IC50 is more than 200 nM. Consider `CN(C)c1nc(N[C@H]2CC[C@@H](NCCc3ccc(Br)cc3OC(F)(F)F)CC2)nc2c1CCCC2` [Example 14, N^2-{cis-4-[2-(4-Bromo-2-trifluoromethoxy-phenyl)-ethylamino]-cyclohexyl}-N^4,N^4-dimethyl-5,6,7,8-tetrahydro-quinazoline-2,4-diamine dihydrochloride], for which, in assay [1] (setting [3]), the IC50 is less than 50 nM.

In the case of “(3-{(1S)-2-[(cis-4-([4-(dimethylamino)-5,6,7,8-tetrahydroquinazolin-2-yl]amino}cyclohexyl)amino]-1-methylethyl}phenyl)(phenyl)methanol [compound 1496]”, the class in assay [2] (setting [5]) is reported as 3 (Class 3 The value of percent of control at 10^−7 M was more than 60% or the value of IC50 was more than 200 nM.).

Regarding “N4,N4-dimethyl-N2-(cis-4-{[(2,4,5-trimethoxybenzyl)amino]-methyl}cyclohexyl)-5,6,7,8-tetrahydroquinazoline-2,4-diamine [compound 1416]”, the class in assay [2] (setting [5]) is on record as 1 (Class 1: The value of percent of control at 10^−7 M was less than 40% or the value of IC50 was less than 50 nM.).

As for “N-(3,4-dimethoxyphenyl)-N′-(cis-4-{[4-(dimethylamino)-5,6-dimethylpyrimidin-2-yl]amino}cyclohexyl)urea [compound 2867]”, in assay [2] (class by percent of control at 10^−7 M or IC50), the class was 1 (Class 1: The value of percent of control at 10^−7 M was less than 40% or the value of IC50 was less than 50 nM.). Take “N-[(cis-4-{[4-(dimethylamino)pyrimidin-2-yl]amino}cyclohexyl)methyl]-N′-(2-ethyl-6-isopropylphenyl)urea [compound 2422]”: the class in assay [2] (MCH receptor activity class 1-3 (percent of control at 10^-7 M or IC50)) is given as 1 (Class 1: The value of percent of control at 10^−7 M was less than 40% or the value of IC50 was less than 50 nM.). Regarding “N-cyclopropyl-N′-(cis-4-{[4-(dimethylamino)-5,6,7,8-tetrahydroquinazolin-2-yl]amino}cyclohexyl)thiourea [compound 2028]”, in assay [2] (MCH receptor, class by percent of control at 10^-7 M or IC50), the class is listed as 3 (Class 3 The value of percent of control at 10^−7 M was more than 60% or the value of IC50 was more than 200 nM.).
